Data taken from patent US20240383852A1, “ANTI-VIRAL COMPOUNDS” (INFEX Therapeutics Limited, priority 2021, published 2024).
Where a name gives a salt, the structure may show the parent alone.

Tests used:
[1] = test system: human Hep G2 cells (ATCC HB-8065); assay: Cytotoxicity in Hep G2 cells (CellTiter-Glo); format: cell-based; details: Hep G2 cells, 100 μM test article, 24-hour exposure
[2] = target: T1, SARS-CoV-2 PLpro (Severe acute respiratory syndrome coronavirus 2, UniProt P0DTD1); assay: biochemical; details: 60 nM papain-like protease, 50 μM Z-RLRGG-AMC, pH 7.5, 37° C.; read-out: SARS-CoV-2 PLpro IC50
T1 construct: containing 60 nM papain-like protease

| Structure (SMILES) | % Cell Viability [1] [%] | IC50 [2] [µM] |
| --- | --- | --- |
| Cc1ccc(N2CCN(C)CC2)cc1C(=O)N[C@H](C)c1ccc(O)c(-c2cnn(C)c2)c1 [Example 276, N-[(1R)-1-[4-Hydroxy-3-(1-methylpyrazol-4-yl)phenyl]ethyl]-2-methyl-5-(4-methylpiperazin-1-yl)benzamide] | 81.6 | < 2 |
| COc1ccc([C@@H](C)NC(=O)c2cc(N3CCN(C)CC3)ccc2C)cc1-c1cnn(C)c1C [Example 246, N-[(1R)-1-[3-(1,5-Dimethylpyrazol-4-yl)-4-methoxy-phenyl]ethyl]-2-methyl-5-(4-methylpiperazin-1-yl)benzamide] | 81.4 | < 2 |
| Cc1ccc(N2CCN(C)CC2)cc1C(=O)N[C@H](C)c1cccc(-c2ccsc2)c1 [Example 50, 2-Methyl-5-(4-methylpiperazin-1-yl)-N-[(1R)-1-[3-(3-thienyl)phenyl]ethyl]benzamide] | 2.3 | < 2 |
| COc1cc(Br)cc([C@@H](C)NC(=O)c2cc(N3C[C@H]4C[C@@H]3CN4C)ccc2C)c1 [Example 198, N-[(1R)-1-(3-Bromo-5-methoxy-phenyl)ethyl]-2-methyl-5-[(1R,4R)-5-methyl-2,5-diazabicyclo[2.2.1]heptan-2-yl]benzamide] | 1.6 | < 2 |
| Cc1ccc(N2CCN(C)CC2)cc1C(=O)N[C@H](C)c1cccc(-c2cccc(C(C)(C)O)c2)c1 [Example 45, N-[(1R)-1-[3-[3-(1-Hydroxy-1-methyl-ethyl)phenyl]phenyl]ethyl]-2-methyl-5-(4-methylpiperazin-1-yl)benzamide] | 59.5 | < 2 |
| C[C@@H](NC(=O)c1cccc(N2CCNCC2)c1)c1cccc2ccccc12 [Example 158, N-[(1R)-1-(1-Naphthyl)ethyl]-3-piperazin-1-yl-benzamide Hydrochloride Salt] | 0.8 | < 5 |
| Cc1ccc(N2CCN(CC(=O)N(C)C)CC2)cc1C(=O)N[C@H](C)c1cccc(-c2cnn(C)c2)c1 [Example 113, 5-[4-[2-(Dimethylamino)-2-oxo-ethyl]piperazin-1-yl]-2-methyl-N-[(1R)-1-[3-(1-methylpyrazol-4-yl)phenyl]ethyl]benzamide] | 72.7 | < 20 |
| COc1ccc([C@@H](C)NC(=O)c2cc(N3CCN(CCO)CC3)ccc2C)cc1-c1cnn(C)c1 [Example 273, 5-[4-(2-Hydroxyethyl)piperazin-1-yl]-N-[(1R)-1-[4-methoxy-3-(1-methylpyrazol-4-yl)phenyl]ethyl]-2-methyl-benzamide] | 92.6 | < 5 |
| Cc1ccc(N2CCN(C)CC2)cc1C(=O)N[C@H](C)c1cccc(-c2ccc(=O)[nH]c2)c1 [Example 66, 2-Methyl-5-(4-methylpiperazin-1-yl)-N-[(1R)-1-[3-(6-oxo-1,6-dihydropyridin-3-yl)phenyl]ethyl]benzamide] | 100.8 | < 2 |
| COc1ccc([C@@H](C)NC(=O)c2cc(N3C[C@@H]4C[C@H]3CN4)ccc2C)cc1OC [Example 18, 5-[(1S,4S)-2,5-Diazabicyclo[2.2.1]heptan-2-yl]-N-[(1R)-1-(3,4-dimethoxyphenyl)ethyl]-2-methyl-benzamide] | 119.3 | < 20 |
| C[C@@H](NC(=O)c1cc(N2CCNCC2)ccc1Cl)c1cccc2ccccc12 [Example 134, 2-Chloro-N-[(1R)-1-(1-naphthyl)ethyl]-5-piperazin-1-yl-benzamide] | 0.8 | < 2 |
| COc1cc(-c2cnn(C)c2)cc([C@@H](C)NC(=O)c2cc(N3CC4CN(C)CC4C3)ccc2C)c1 (stereo partly drawn) [Example 242, N-[(1R)-1-[3-Methoxy-5-(1-methylpyrazol-4-yl)phenyl]ethyl]-2-methyl-5-(2-methyl-1,3,3a,4,6,6a-hexahydropyrrolo[3,4-c]pyrrol-5-yl)benzamide] | 62.4 | < 2 |
| Cc1ccc(N2CCN(C)CC2)cc1C(=O)N[C@H](C)c1cccc(N2CCN(C)CC2)c1 [Example 103, 2-Methyl-5-(4-methylpiperazin-1-yl)-N-[(1R)-1-[3-(4-methylpiperazin-1-yl)phenyl]ethyl]benzamide] | 91.4 | < 5 |
| Cc1ccc(-c2ccnc(N3CCNCC3)c2)cc1C(=O)N[C@H](C)c1cccc2ccccc12 [Example 140, 2-Methyl-N-[(1R)-1-(1-naphthyl)ethyl]-5-(2-piperazin-1-yl-4-pyridyl)benzamide] | 0.8 | < 10 |
| COc1ccc([C@@H](C)NC(=O)c2cc(N3CCN(C)CC3)ccc2C)cc1OCCN1CCOCC1 [Example 292, N-[(1R)-1-[4-Methoxy-3-(2-morpholinoethoxy)phenyl]ethyl]-2-methyl-5-(4-methylpiperazin-1-yl)benzamide] | 88.9 | < 2 |
| Cc1ccc(N2CCN(C)CC2)cc1C(=O)N[C@H](C)c1cccc(-c2ccc(C(O)CO)cc2)c1 (stereo partly drawn) [Example 70, N-[(1R)-1-[3-[4-(1,2-Dihydroxyethyl)phenyl]phenyl]ethyl]-2-methyl-5-(4-methylpiperazin-1-yl)benzamide] | 59.1 | < 2 |

| Structure (SMILES) | % Cell Viability [1] [%] | IC50 [2] [µM] |
| --- | --- | --- |
| COc1cc(Br)cc([C@@H](C)NC(=O)c2cc(N3CC4CN(C)CC4C3)ccc2C)c1 (stereo partly drawn) [Example 199, N-[(1R)-1-(3-Bromo-5-methoxy-phenyl)ethyl]-2-methyl-5-(2-methyl-1,3,3a,4,6,6a-hexahydropyrrolo[3,4-c]pyrrol-5-yl)benzamide] | 0.7 | < 2 |
| Cc1ccc(N2CCN(C)CC2)cc1C(=O)N[C@H](C)c1cccc(N2CC(CO)OC2=O)c1 (stereo partly drawn) [Example 107, N-[(1R)-1-[3-[5-(Hydroxymethyl)-2-oxo-oxazolidin-3-yl]phenyl]ethyl]-2-methyl-5-(4-methylpiperazin-1-yl)benzamide] | 100.7 | < 5 |
| Cc1ccc(N2CCN(C)CC2)cc1C(=O)N[C@H](C)c1cc(F)cc(Br)c1 [Example 197, N-[(1R)-1-(3-Bromo-5-fluoro-phenyl)ethyl]-2-methyl-5-(4-methylpiperazin-1-yl)benzamide] | 44.7 | < 2 |
| Cc1ccc([C@@H](C)NC(=O)c2cc(N3CCN(C)CC3)ccc2C)cc1Br [Example 196, N-[(1R)-1-(3-Bromo-4-methyl-phenyl)ethyl]-2-methyl-5-(4-methylpiperazin-1-yl)benzamide] | 4.7 | < 2 |
| Cc1ccc(N2CCN(CC3CC3)CC2)cc1C(=O)N[C@H](C)c1cccc2ccccc12 [Example 118, 5-[4-(Cyclopropylmethyl)piperazin-1-yl]-2-methyl-N-[(1R)-1-(1-naphthyl)ethyl]benzamide] | 6.6 | < 2 |
| COc1cc(-c2cn(C)nc2C)cc([C@@H](C)NC(=O)c2cc(N3CC4CN(C)CC4C3)ccc2C)c1 (stereo partly drawn) [Example 254, N-[(1R)-1-[3-(1,3-Dimethylpyrazol-4-yl)-5-methoxy-phenyl]ethyl]-2-methyl-5-(2-methyl-1,3,3a,4,6,6a-hexahydropyrrolo[3,4-c]pyrrol-5-yl)benzamide] | 57.0 | < 2 |
| Cc1ccc(N2CCN(C)CC2)cc1C(=O)N[C@H](C)c1cccc(-c2cccc(C(=O)N3CC[C@H](O)C3)c2)c1 [Example 95, N-[(1R)-1-[3-[3-[(3S)-3-Hydroxypyrrolidine-1-carbonyl]phenyl]phenyl]ethyl]-2-methyl-5-(4-methylpiperazin-1-yl)benzamide] | 88.5 | < 2 |
| CNCCN(C)C(=O)c1ccc(-c2cccc([C@@H](C)NC(=O)c3cc(N4CCN(C)CC4)ccc3C)c2)cc1 [Example 75, 2-Methyl-N-[(1R)-1-[3-[4-[methyl-[2-(methylamino)ethyl]carbamoyl]phenyl]phenyl]ethyl]-5-(4-methylpiperazin-1-yl)benzamide] | 123.6 | < 2 |
| COc1ccc(Br)cc1[C@@H](C)NC(=O)c1cc(N2CCN(C)CC2)ccc1C [Example 195, N-[(1R)-1-(5-Bromo-2-methoxy-phenyl)ethyl]-2-methyl-5-(4-methylpiperazin-1-yl)benzamide] | 41.5 | < 2 |
| Cc1ccc(N2CCN(C)CC2)cc1C(=O)N[C@H](C)c1cncc(-c2cnn(C)c2)c1 [Example 224, 2-Methyl-5-(4-methylpiperazin-1-yl)-N-[(1R)-1-[5-(1-methylpyrazol-4-yl)-3-pyridyl]ethyl]benzamide] | 105.0 | < 5 |
| COc1ccc([C@@H](C)NC(=O)c2cc(N3CCN(C)CC3)ccc2C)cc1Cl [Example 188, N-[(1R)-1-(3-Chloro-4-methoxy-phenyl)ethyl]-2-methyl-5-(4-methylpiperazin-1-yl)benzamide] | 84.9 | < 2 |
| COc1ccc([C@@H](C)NC(=O)c2cc(N3CCN(C)CC3)ccc2C)cc1C1CCN(CCC(=O)O)CC1 [Example 238, 3-[4-[2-Methoxy-5-[(1R)-1-[[2-methyl-5-(4-methylpiperazin-1-yl)benzoyl]amino]ethyl]phenyl]-1-piperidyl]propanoic Acid] | 119.7 | < 10 |
| Cc1ccc(N2CCCN(S(N)(=O)=O)CC2)cc1C(=O)N[C@H](C)c1cccc2ccccc12 [Example 178, 2-methyl-N-[(1R)-1-(1-naphthyl)ethyl]-5-(4-sulfamoyl-1,4-diazepan-1-yl)benzamide] | 77.2 | < 20 |
| Cc1ccc(N2CCNCC2)cc1C(=O)N[C@H](C)c1cccc2ccccc12 [Example 108, 2-Methyl-N-[(1R)-1-(1-naphthyl)ethyl]-5-piperazin-1-yl-benzamide] | 2.1 | < 2 |
| COc1ccc([C@@H](C)NC(=O)c2cc(N3CCN(C)CC3)ccc2C)cc1Br [Example 180, N-[(1R)-1-(3-Bromo-4-methoxy-phenyl)ethyl]-2-methyl-5-(4-methylpiperazin-1-yl)benzamide] | 93.4 | < 2 |
